Data reported in patent US20040157930A1, “Histone deacetylase enzyme-inhibiting derivatives of hydroxamic acid as new cytokine synthesis-inhibiting anti-inflammatory drugs” (priority 2001, published 2004).

Experiments:
[1] = test system: DSS-induced colitis; test: Dextran-induced colitis; format: in vivo, C57BL/6 mice; settings: for Complete clinical score: 0 (healthy) to 4; for Weight: in g; for Bleeding / Stool consistency as score: score 0-4; for Colon length: post mortem day 10
Procedure: Female, 8 week-old C57BL/6 mice (The Jackson Laboratories, Bar Habor, Me.) weighing 20-22 g were used in this study. The animals were housed in rooms at a controlled temperature and a 12 h day/night rhythm. They were fed standard mice chow pellets ad libitum, had free access to tap water supplied in bottles, and were acclimatized to the conditions at least seven days before they were used in experiments. Mice were killed by cervical dislocation under isoflurane anesthesia (Fort Dodge, Iowa City, Iowa).
; molecular weight 40 kDa; ICN, Aurora, Ohio) dissolved in sterile, distilled water ad libitum from day one to five followed by a five day observation period. […]. Body weights, occult blood or the presence of gross blood per rectum, and stool consistency were determined daily. Two investigators blinded to the protocol assessed the clinical score (table 1). Weight loss <1% compared to day 1 was counted as 0 points, weight loss of 1 to <5% as 1 point, 5 to <9.9% as 2 points, 10 to 20% as 3 points and more than 20% as 4 points. […] Bleeding was scored 0 points for no blood in hemoccult, 2 points for positive hemoccult, and 4 points for gross bleeding. These scores (body weight, stool consistency, rectal bleeding) were added and divided by 3 resulting in a total clinical score ranging from 0 (healthy) to 4 (maximal activity of colitis).
Post mortem (on day 10), the entire colon was removed from the caecum to the anus and the colon length was measured as an indirect marker of inflammation.

[2] = test system: Con A-induced liver injury; test: Con A-induced liver injury, serum ALT; format: in vivo, C57B16 mice; settings: single dose 50 mg/kg i.p. 1 h before Con A i.v.; vehicle 15.190±2.580
Procedure: After 24 h, serum amino-alanine transferase was measured. Intravenous injection of Con A results in hepatic cell death within 12-24 h with markedly elevated serum levels of hepatic enzymes such as alanine amino transaminase (ALT).

[3] = test system: mouse peritoneal macrophages; test: Nitric oxide production from mouse peritoneal macrophages (Griess); format: cell-based, C57BLy6 mice; settings: TNF-α plus IFN-γ stimulation, 24 h
Procedure: C57BLy6 mice were injected i.p. with 1 ml of sterile thioglycolate broth and killed after 5 days, and macrophages were isolated using instillation of 10 ml of ice-cold PBS into the peritoneal cavity. The cells were centrifuged (350×g) and 3 ml of erythrocyte lysing reagent (PharMingen) was added for 10 min.
Seven milliliters of DMEM containing 5% FCS was added and the cells were centrifuged at 4° C. The cells were resuspended in DMEM at 1 million per ml and 0.5 ml were added to wells of a 48-well plate. […] After 24 h, NO levels in the supernatant were determined using the Griess reagent as described in Am.J.Physiol.Cell Physiol. (2001), 280, C441-C450.

[4] = test system: IL-12 (p70); test: Inhibition of IL-12 production by cultured monocytes (ELISA); format: cell-based; settings: nonadherent human monocytes
Procedure: Venous blood was obtained from consenting adults and separated over Ficoll-Hypaque. The PBMC fraction was washed and adjusted to five million cells per ml. […] The cells were stimulated with LPS, soluble OKT3, or cytokines, and after 24 or 48 h At 37° C. the supernatant was removed and frozen for cytokine assays. Monocytes were isolated by centrifugation over Percoll, washed, suspended in RPMI with 10% FCS, and aliquoted at 2 million cells per ml in Petriperm Teflon-coated culture dishes (Sigma). The ELISA for human IL-12 (p70) was purchased from Endogen (Woburn, Mass.).

[5] = DSS + SAHA 10 mg/kg p.o. daily, day 1
[6] = DSS + SAHA 10 mg/kg p.o. daily, day 2
[7] = DSS + SAHA 10 mg/kg p.o. daily, day 3
[8] = DSS + SAHA 10 mg/kg p.o. daily, day 4
[9] = DSS + SAHA 10 mg/kg p.o. daily, day 5
[10] = DSS + SAHA 10 mg/kg p.o. daily, day 6
[11] = DSS + SAHA 10 mg/kg p.o. daily, day 7
[12] = DSS + SAHA 10 mg/kg p.o. daily, day 8
[13] = DSS + SAHA 10 mg/kg p.o. daily, day 9
[14] = DSS + SAHA 10 mg/kg p.o. daily, day 10
[15] = SAHA 10 mg/kg p.o. daily without DSS, day 1
[16] = SAHA 10 mg/kg p.o. daily without DSS, day 2
[17] = SAHA 10 mg/kg p.o. daily without DSS, day 3
[18] = SAHA 10 mg/kg p.o. daily without DSS, day 4
[19] = SAHA 10 mg/kg p.o. daily without DSS, day 5
[20] = SAHA 10 mg/kg p.o. daily without DSS, day 6
[21] = SAHA 10 mg/kg p.o. daily without DSS, day 7
[22] = SAHA 10 mg/kg p.o. daily without DSS, day 8
[23] = SAHA 10 mg/kg p.o. daily without DSS, day 9
[24] = SAHA 10 mg/kg p.o. daily without DSS, day 10

O=C(CCCCCCC(=O)Nc1ccccc1)NO [SAHA, suberoylanilide hydroxamic acid]
Complete clinical score [1, 5]: 0.0 ± 0.0
Weight [1, 5]: 19.1 ± 0.2
Bleeding [1, 5]: 0.0 ± 0.0
Stool consistency as score [1, 5]: 0.0 ± 0.0
Complete clinical score [1, 6]: 0.0 ± 0.0
Weight [1, 6]: 18.8 ± 0.2
Bleeding [1, 6]: 0.0 ± 0.0
Stool consistency as score [1, 6]: 0.0 ± 0.0
Complete clinical score [1, 7]: 0.1 ± 0.1
Weight [1, 7]: 19.1 ± 0.3
Bleeding [1, 7]: 0.0 ± 0.0
Stool consistency as score [1, 7]: 0.0 ± 0.0
Complete clinical score [1, 8]: 0.2 ± 0.1
Weight [1, 8]: 18.4 ± 0.4
Bleeding [1, 8]: 0.0 ± 0.0
Stool consistency as score [1, 8]: 0.0 ± 0.0
Complete clinical score [1, 9]: 0.7 + 0.3
Weight [1, 9]: 18.4 ± 0.4
Bleeding [1, 9]: 1.2 ± 0.4
Stool consistency as score [1, 9]: 0.8 ± 0.4
Complete clinical score [1, 10]: 1.3 ± 0.3
Weight [1, 10]: 18.7 ± 0.3
Bleeding [1, 10]: 2.4 ± 0.4
Stool consistency as score [1, 10]: 0.8 ± 0.4
Complete clinical score [1, 11]: 1.5 ± 0.1
Weight [1, 11]: 18.0 ± 0.4
Bleeding [1, 11]: 2.0 ± 0.0
Stool consistency as score [1, 11]: 2.0 ± 0.0
Complete clinical score [1, 12]: 1.9 ± 0.1
Weight [1, 12]: 16.9 ± 0.3
Bleeding [1, 12]: 1.6 ± 0.4
Stool consistency as score [1, 12]: 2.0 ± 0.0
Complete clinical score [1, 13]: 1.5 ± 0.4
Weight [1, 13]: 16.6 ± 0.4
Bleeding [1, 13]: 1.2 ± 0.4
Stool consistency as score [1, 13]: 1.2 ± 0.4
Complete clinical score [1, 14]: 1.3 ± 0.4
Weight [1, 14]: 16.6 ± 0.4
Bleeding [1, 14]: 0.8 ± 0.4
Stool consistency as score [1, 14]: 1.2 ± 0.4
Colon length ([1]; DSS + SAHA 10 mg/kg p.o. daily, DSS + water 7.6 ± 0.2): 9.2 ± 0.2 cm
Complete clinical score [1, 15]: 0.0 ± 0.0
Weight [1, 15]: 18.9 ± 0.3
Bleeding [1, 15]: 0.0 ± 0.0
Stool consistency as score [1, 15]: 0.0 ± 0.0
Complete clinical score [1, 16]: 0.0 ± 0.0
Weight [1, 16]: 18.8 ± 0.4
Bleeding [1, 16]: 0.0 ± 0.0
Stool consistency as score [1, 16]: 0.0 ± 0.0
Complete clinical score [1, 17]: 0.0 ± 0.0
Weight [1, 17]: 18.9 ± 0.2
Bleeding [1, 17]: 0.0 ± 0.0
Stool consistency as score [1, 17]: 0.0 ± 0.0
Complete clinical score [1, 18]: 0.0 ± 0.0
Weight [1, 18]: 18.9 ± 0.3
Bleeding [1, 18]: 0.0 ± 0.0
Stool consistency as score [1, 18]: 0.0 ± 0.0
Complete clinical score [1, 19]: 0.0 ± 0.0
Weight [1, 19]: 19.0 ± 0.1
Bleeding [1, 19]: 0.0 ± 0.0
Stool consistency as score [1, 19]: 0.0 ± 0.0
Complete clinical score [1, 20]: 0.0 ± 0.0
Weight [1, 20]: 19.0 ± 0.3
Bleeding [1, 20]: 0.0 ± 0.0
Stool consistency as score [1, 20]: 0.0 ± 0.0
Complete clinical score [1, 21]: 0.0 ± 0.0
Weight [1, 21]: 18.9 ± 0.1
Bleeding [1, 21]: 0.0 ± 0.0
Stool consistency as score [1, 21]: 0.0 ± 0.0
Complete clinical score [1, 22]: 0.0 ± 0.0
Weight [1, 22]: 19.0 ± 0.3
Bleeding [1, 22]: 0.0 ± 0.0
Stool consistency as score [1, 22]: 0.0 ± 0.0
Complete clinical score [1, 23]: 0.0 ± 0.1
Weight [1, 23]: 19.1 ± 0.1
Bleeding [1, 23]: 0.0 ± 0.0
Stool consistency as score [1, 23]: 0.0 ± 0.0
Complete clinical score [1, 24]: 0.0 ± 0.0
Weight [1, 24]: 19.1 ± 0.2
Bleeding [1, 24]: 0.0 ± 0.0
Stool consistency as score [1, 24]: 0.0 ± 0.0
Colon length ([1]; SAHA 10 mg/kg p.o. daily without DSS, water 10.5 ± 0.3): 10.1 ± 0.2 cm
effect on dextran-induced colitis (overall conclusion) ([1]; SAHA 10 mg/kg p.o. daily, days 1 to 10): effectively counteracts dextran-induced colitis
24-h level of serum ALT (mean±SE) [2]: 8.144±2.091 units/liter
reduction of NO production ([3]; 200 nM): 50%
reduction of NO production ([3]; 400 nM): 80%
reduction of NO production ([3]; 800 nM): 85%
reduction in LPS/IFN-γ-induced IL-12 production ([4]; 200 nM): 55%
reduction in LPS/IFN-γ-induced IL-12 production ([4]; 400 nM): 86%
